Here are results for ten compounds from ChEMBL document CHEMBL1201862, “PubChem BioAssay data set” (2004).

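The compound was tested at five concentrations on cells cultured in 96-well plates, with a 48-hour exposure period. GI50 = concentration required for 50% inhibition of growth.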 The source made the active and inactive calls. Cut-off read from the data, not from the text of the source: active = GI50 up to about 1.1 µM and inactive = higher.

As a reminder, the GI50 is the concentration giving 50% growth inhibition.

Common to all, as to assay: DTP human tumour cell line panel, 48 h
Assay [1] relates to 786-0.
Assay [2] concerns A549.
For assay [3], the system named is ACHN.
Assay [4] deals with CAKI-1.
Assay [5] has as its system DU-145.
Assay [6] relates to EKVX.
The test system of assay [7] is HCC 2998.
In assay [8] the test system is HCT-116.
For assay [9], the system named is Hs-578T.
Assay [10] relates to M14.
Assay [11] relates to NCI-H522.
For assay [12], the system named is NCI/ADR-RES.
The subject of assay [13] is OVCAR-3.
In assay [14] the test system is PC-3.
For assay [15], the system named is SK-MEL-2.
The subject of assay [16] is T47D.
In assay [17] the test system is TK-10.
Assay [18] has as its system U-251.
Assay [19] deals with UACC-62.
The subject of assay [20] is UO-31.

Regarding `COC(=O)/C=C\C(C#N)(C#N)/N=C/c1ccc(C)cc1`, the GI50 is 1.6 µM (inactive) in [1]; 17.7 µM (inactive) in [2]; 2.3 µM (inactive) in [3]; 2.59 µM (inactive) in [4]; 5.86 µM (inactive) in [5]; 14.4 µM (inactive) in [6]. For the same compound, the GI50 in [7] is 18.2 µM (inactive); in assay [8] it was 1.76 µM (inactive); in [9], 20.5 µM (inactive); in assay [10], 2.01 µM (inactive); in assay [11] it was 0.378 µM (active); in [12] it was 3.1 µM (inactive). The GI50 in assay [13] is 2.6 µM (inactive); in assay [14], 6.44 µM (inactive); in assay [15], 16.3 µM (inactive); in [16] it was 1.79 µM (inactive); in assay [17], 1.8 µM (inactive); in [18] it was 13 µM (inactive). In addition, the GI50 was 14.9 µM (inactive) in assay [19] and 2.49 µM (inactive) in [20].
Consider `COc1cc(/C=C/c2ccnc3ccccc23)cc(OC)c1OC`, for which the GI50 in assay [1] is 8.97 µM (inactive); in assay [2], 4.52 µM (inactive); in assay [3], 7.23 µM (inactive); in assay [4], 3.7 µM (inactive); in assay [5], 4.84 µM (inactive); in assay [6], 8.87 µM (inactive). In addition, the GI50 was 8.47 µM (inactive) in [7]; 1.82 µM (inactive) in assay [8]; 3.85 µM (inactive) in [9]; 3.63 µM (inactive) in assay [10]; 2.13 µM (inactive) in assay [11]; 2.46 µM (inactive) in assay [12]. Besides, the GI50 in assay [13] was 3.3 µM (inactive); in assay [14], 9.29 µM (inactive); in assay [15] it was 3.78 µM (inactive); in assay [16], 3.81 µM (inactive); in [17], 5.37 µM (inactive); in assay [18] it was 4.99 µM (inactive). The GI50 is 3.17 µM (inactive) in assay [19] and 0.132 µM (active) in assay [20].
On to `NC(=O)C[C@H](NC(=O)C1(NC(=O)[C@H](Cc2ccc(CP(=O)(O)O)cc2)NC(=O)C(=O)O)CCCCC1)C(=O)NCCCc1cccc2ccccc12`, for which the GI50 in assay [1], in assay [2], in assay [3], in [4], in assay [5] and in assay [6] was > 10 µM (inactive) throughout. For the same compound, the GI50 in [7], in assay [8], in [9], in assay [10], in assay [11] and in assay [12] was > 10 µM (inactive) in each case. In addition, the GI50 in [13], in assay [14], in assay [15], in [16], in [17] and in [18] was > 10 µM (inactive) throughout. In addition, the GI50 in assay [19] and in [20] was > 10 µM (inactive) in each case.
In the case of `CC1(C)CC(=O)C(CC(C(=O)C(=O)Nc2cc(C(F)(F)F)ccc2Cl)C(=O)c2ccco2)C(=O)C1` (stereo not given), the GI50 in [1], in assay [2], in assay [3], in assay [4], in assay [5] and in assay [6] was > 100 µM (inactive) each time. Also, the GI50 in assay [7], in assay [8], in assay [9], in [10], in assay [11] and in [12] was > 100 µM (inactive) in each case. Moreover, the GI50 in [13], in assay [14], in [15], in [16], in assay [17] and in assay [18] was > 100 µM (inactive) in each case. For the same compound, the GI50 in assay [19] and in [20] was > 100 µM (inactive) each time.
Take `CC1=C(C)SC(=C2Sc3c(n(C)c(=O)n(C)c3=O)S2)S1`: the GI50 in [1] was 17.4 µM (inactive); in assay [2], 42.5 µM (inactive); in [3] it was 45 µM (inactive); in assay [4], 64.3 µM (inactive); in [5], > 100 µM (inactive); in assay [6] it was > 100 µM (inactive). For the same compound, the GI50 in [7] was > 100 µM (inactive); in assay [8] it was 10.7 µM (inactive); in assay [9], 61.4 µM (inactive); in assay [10] it was > 100 µM (inactive); in assay [11], 57.3 µM (inactive); in assay [12], 55.3 µM (inactive). The GI50 in [13] is 71.3 µM (inactive); in assay [14], > 100 µM (inactive); in assay [15], 22.3 µM (inactive); in [16] it was > 100 µM (inactive); in assay [17], 27.9 µM (inactive); in [18], 4.14 µM (inactive). For the same compound, the values for the GI50 in assay [19] and in assay [20] were 44.7 µM (inactive) and 59 µM (inactive), respectively.
In the case of `CC1CC[C@@]2(OC1)O[C@H]1[C@H](O)[C@H]3[C@@H]4CC[C@H]5C[C@@H](OC6OC(CO)C(OC7OC(CO)C(O)C(OC8OCC(O)C(O)C8O)C7OC7OC(CO)C(O)C(O)C7OC7OC(CO)C(O)C(O)C7O)C(O)C6O)[C@H](O)C[C@]5(C)[C@H]4CC[C@]3(C)[C@H]1[C@@H]2C` (stereo not given in full), the GI50 in assay [1] is 3.12 µM (inactive); in [2], 3.47 µM (inactive); in assay [3], > 10 µM (inactive); in assay [4], > 10 µM (inactive); in assay [5], > 10 µM (inactive); in assay [6], > 10 µM (inactive). The GI50 in [7] was > 10 µM (inactive); in [8], 4.59 µM (inactive); in [9], 3.67 µM (inactive); in assay [10] it was > 10 µM (inactive); in assay [11], 2.78 µM (inactive); in assay [12], > 10 µM (inactive). The GI50 is 2.85 µM (inactive) in [13]; 2.7 µM (inactive) in [14]; > 10 µM (inactive) in assay [15]; > 10 µM (inactive) in [16]; > 10 µM (inactive) in assay [17]; 5.01 µM (inactive) in assay [18]. The values for the GI50 in assay [19] and in [20] were > 10 µM (inactive) and 4.18 µM (inactive), respectively.
In the case of `COC1=N[C@H](C(C)C)C(OC)=N[C@H]1Cc1ccc(C[C@@H]2N=C(OC)[C@@H](C(C)C)N=C2OC)s1`, the GI50 in assay [1] is 45.6 µM (inactive); in assay [2], 29 µM (inactive); in assay [3], 29.4 µM (inactive); in assay [4], 50.2 µM (inactive); in assay [5] it was 33.2 µM (inactive); in assay [6] it was 24.8 µM (inactive). Also, the GI50 in assay [7] is 34.2 µM (inactive); in assay [8] it was 31 µM (inactive); in assay [9] it was 88.3 µM (inactive); in assay [10], 36 µM (inactive); in assay [11], 23.7 µM (inactive); in [12] it was 52.6 µM (inactive). Further, the GI50 is 58.9 µM (inactive) in assay [13]; 21.3 µM (inactive) in assay [14]; 14.3 µM (inactive) in assay [15]; 13.5 µM (inactive) in assay [16]; > 100 µM (inactive) in [17]; 24 µM (inactive) in assay [18]. In addition, the values for the GI50 in assay [19] and in assay [20] were 45.1 µM (inactive) and 45.4 µM (inactive), respectively.
With `Oc1ccccc1CNCc1nc2ccccc2[nH]1`, the GI50 in assay [1] was 26.1 µM (inactive); in [2] it was > 100 µM (inactive); in assay [3], 12.9 µM (inactive); in assay [4], 69.3 µM (inactive); in [5] it was > 100 µM (inactive); in [6] it was 36.1 µM (inactive). For the same compound, the GI50 in [7] is > 100 µM (inactive); in assay [8], 37 µM (inactive); in assay [9], > 100 µM (inactive); in [10] it was 86.3 µM (inactive); in assay [11], > 100 µM (inactive); in assay [12], 15.9 µM (inactive). Moreover, the GI50 in assay [13] is 33.7 µM (inactive); in assay [14], 71.9 µM (inactive); in assay [15] it was > 100 µM (inactive); in assay [16] it was > 100 µM (inactive); in assay [17], 83 µM (inactive); in assay [18], 41.5 µM (inactive). The GI50 in assay [19] was 78.7 µM (inactive); in assay [20], 11.2 µM (inactive).
Take `Oc1nc(-c2cccc(F)c2)nc2ccccc12`: the GI50 was 38.6 µM (inactive) in assay [1]; 51.6 µM (inactive) in assay [2]; 31.1 µM (inactive) in assay [3]; > 100 µM (inactive) in [4]; > 100 µM (inactive) in assay [5]; > 67.3 µM (inactive) in assay [6]. The GI50 in assay [7] was 35.1 µM (inactive); in [8], 27.2 µM (inactive); in assay [9] it was 15.7 µM (inactive); in assay [10] it was 62.1 µM (inactive); in assay [11], 43.9 µM (inactive); in [12] it was 45.5 µM (inactive). Besides, the GI50 is > 54.2 µM (inactive) in [13]; 55.5 µM (inactive) in assay [14]; 41 µM (inactive) in [15]; > 100 µM (inactive) in [16]; 34.6 µM (inactive) in [17]; 36.5 µM (inactive) in assay [18]. Further, the GI50 in assay [19] was 23.1 µM (inactive); in [20], 30.8 µM (inactive).
Consider `O=C(Nc1ccc(N2C(=O)CSC2c2ccccc2O)cc1)c1ccc(N2C(=O)CSC2c2ccccc2O)cc1` (stereo not given), for which the GI50 in assay [1] was 43.7 µM (inactive); in assay [2] it was 40.7 µM (inactive); in [3] it was 35.6 µM (inactive); in assay [4], > 100 µM (inactive); in assay [5], > 100 µM (inactive); in [6] it was 79.4 µM (inactive). Besides, the GI50 was > 100 µM (inactive) in [7]; 88.3 µM (inactive) in assay [8]; 71.9 µM (inactive) in [9]; 23.6 µM (inactive) in assay [10]; 55.7 µM (inactive) in assay [11]; > 100 µM (inactive) in assay [12]. For the same compound, the GI50 was 84.7 µM (inactive) in assay [13]; 43.3 µM (inactive) in assay [14]; 84.7 µM (inactive) in assay [15]; 43.3 µM (inactive) in [16]; 74 µM (inactive) in [17]; 34 µM (inactive) in assay [18]. Further, the GI50 in assay [19] was 29.1 µM (inactive); in assay [20], 54.5 µM (inactive).
